Our source for the EC50 values is patent publication US20160137639A1, “TRIAZOLE-ISOXAZOLE COMPOUND AND MEDICAL USE THEREOF” (JAPAN TOBACCO INC., priority 2012, published 2016).

One assay addresses T1, human RORγ (Homo sapiens, UniProt P51449).
T1 construct: human, NM_005060.3 and from Ser253 to Lys518; expressed in transfected cells; host or cells: CHO cells (transient co-transfection with pG5-Luc reporter)
T1 sequence (P51449 253-518): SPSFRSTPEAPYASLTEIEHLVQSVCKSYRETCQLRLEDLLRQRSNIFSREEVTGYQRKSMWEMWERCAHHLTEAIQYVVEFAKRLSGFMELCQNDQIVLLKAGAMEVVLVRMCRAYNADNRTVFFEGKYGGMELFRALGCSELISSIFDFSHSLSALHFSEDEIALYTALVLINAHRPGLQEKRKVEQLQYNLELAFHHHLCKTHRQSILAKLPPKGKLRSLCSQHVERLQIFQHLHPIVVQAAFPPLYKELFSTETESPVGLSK
As to the kind of experiment: Luciferase reporter gene assay of inhibitory effect against RORγ transcriptional activity (GAL4-hRORγ plasmid in CHO cells). Format: cell-based. The note with it: for pEC50: read-out: LUC EC50 hRORg; for EC50: read-out: LUC EC50 (μM) hRORg. How it is done: (§1) In vitro assay of inhibitory effect against RORγ transcriptional activity
(§2) Inhibitory effect of test article on transcriptional activity of RORγ was measured by means of the following luciferase reporter gene assay.
(§3) A cDNA encoding human and mouse RORγ ligand binding domain (LBD) were obtained based on the reported sequences (Genebank accession number and sequence: human, NM_005060.3 and from Ser253 to Lys518; mouse, NM_011281.2 and from Ile251 to Lys516).
(§4) The cDNA of human RORγ or mouse RORγ was inserted into pFA-CMV vector (Strategene), which expresses GAL4-DNA binding domain fusion protein.
(§5) The resulting plasmids are hereinafter referred to as GAL4-hRORγ plasmid and GAL4-mRORγ plasmid, respectively.
(§6) Human or mouse GAL4-RORγ plasmid was transiently co-transfected into Chinese hamster ovary cells (CHO cells) with […] plasmid, a reporter plasmid expressing firefly luciferase depending on GAL4.
(§7) TransIT CHO transfection reagent (Mirus) was used to co-transfect human or mouse GAL4-RORγ plasmid into CHO cells with pG5-Luc plasmid.
(§8) One day before the assay, CHO cells were suspended in HAM F-12 Nutrient medium containing 10 v/v % fetal bovine serum and seeded at 6×10^6 cells per 175 cm^2 cell culture flask.
(§9) Fifty four micro litters of Transit-CHO reagent was added into a 15 ml tube containing 1.16 ml of HAM F-12 Nutrient medium without fetal bovine serum and incubated at room temperature for 10 min.
A total 36 uL plasmid solution containing the GAL4-hRORγ plasmid (400 ng), pG5-Luc plasmid (9000 ng) and pcDNA3 plasmid (8600 ng) were added into the tube and mixed gently.
(§10) The mixture was incubated at room temperature for 10 min.
(§11) Nine micro litters of CHO Mojo Reagent was then added into each tube and mixed gently. The mixture was incubated at room temperature for 10 min.
(§12) The resultant transfection reagent was applied to the cell culture.
(§13) After incubation at 37° C., 5% CO2 for 4 hr, the transfected CHO cells were harvested by a trypsin treatment.
(§14) The collected cells were resuspended in HAM F-12 Nutrient medium supplemented with 10 v/v % fetal bovine serum and plated into a 384-well-white plate at 8,000 cells/50 uL/well.
(§15) The plate was incubated at room temperature for 1 hour and then further incubated at 37° C., 5% CO2 for 3 hours.
(§16) The test articles were dissolved in dimethylsulfoxide (DMSO) to obtain a concentration of 10 mmol/L. The resulting solution was diluted with the medium just before use and added to the cells in the plate to prepare 8 different concentrations of the test article.
(§17) The final concentration of DMSO was 0.1 v/v % After the addition of the test articles, the cells were incubated at 37° C., 5% CO2 for 2 days.
(§18) RORγ transcriptional activity was detected as the intracellular luciferase activity using SteadyLite HTS Reporter Gene Assay System (Perkin Elmer).
(§19) StedyLite Reagent was diluted five-fold into a solution containing 10 mM Tricine, 0.2% w/v BSA, 0.02% v/v Tween-20 to obtain the luciferase substrate solution.
(§20) After the measurement of the cell viability using Resazurin, the culture media in the 384 well-plate were removed. Then the Luc substrate solution was added into each well.
(§21) After the incubation at room temperature for 10 minutes, luminescence of each well was measured by a microplate reader.
(§22) The luciferase activity derived from the luminescence count in the vehicle-control well treated with 0.1% DMSO alone was defined as 100%, and the luciferase activity in the test article was calculated as a percentage (%-of-control) based on the value of the vehicle-control.
(§23) EC50 value of test article was calculated by curve fitting with GraphPad Prism.
(§24) The luminescence counts at the concentration of the test article where the cytotoxicity was observed were excluded from the data analysis.

For the next assay, the target named is T2, mouse RORγ (Mus musculus, UniProt P51450).
T2 construct: mouse, NM_011281.2 and from Ile251 to Lys516; expressed in transfected cells; host or cells: CHO cells (transient co-transfection with pG5-Luc reporter)
T2 sequence (P51450 251-516): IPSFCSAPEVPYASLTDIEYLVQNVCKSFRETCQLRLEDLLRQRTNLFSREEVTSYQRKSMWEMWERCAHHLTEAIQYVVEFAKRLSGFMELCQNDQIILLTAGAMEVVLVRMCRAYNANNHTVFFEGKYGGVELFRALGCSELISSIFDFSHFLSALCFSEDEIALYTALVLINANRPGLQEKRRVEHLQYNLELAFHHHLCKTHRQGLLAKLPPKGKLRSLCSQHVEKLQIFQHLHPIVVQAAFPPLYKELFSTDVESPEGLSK
As to the kind of experiment: Luciferase reporter gene assay of inhibitory effect against RORγ transcriptional activity (GAL4-mRORγ plasmid in CHO cells). In kind it is cell-based. To be noted: for pEC50: read-out: LUC EC50 mRORg; for EC50: read-out: LUC EC50 (μM) mRORg. The protocol: as §1, §2, §3, §4, §5, §6, §7, §8, §9, §10, §11, §12, §13, §14, §15, §16, §17, §18, §19, §20, §21, §22, §23, §24
(A reporter such as luciferase makes a cellular process visible.)

pEC50: −log10 of the molar value. Read-outs that look alike come from different tables or passages of the source.

As to `Cc1cc(Cl)ccc1NC(=O)C[C@H](CC(C)C)c1nnc(-c2cc(CCC(C)C)on2)n1C1CC1` [Example F-628], the pEC50 at human RORγ and on mouse RORγ was greater than 5.52 in each case.

`Cc1ccc(NC(=O)CC(CC(=O)OC(C)(C)C)c2nnc([C@H]3C[C@@H](CC(C)C)C3)n2C2CC2)c(C)c1` (mixture of isomers) [Example F-498]: the pEC50 at human RORγ and at mouse RORγ was greater than 5.52 each time.

For the molecule `O=C(O)CC[C@@H](CC(=O)Nc1ccc(Cl)cc1Cl)c1noc(-c2cc(C3CCCC3)on2)c1C1CC1` [Example E-70], the EC50 at human RORγ and on mouse RORγ was less than 3 µM each time.

As to `Cc1ccc(NC(=O)[C@@H]2CC(C)(O)C[C@H]2c2nnc([C@H]3C[C@@H](CC(C)C)C3)n2C2CC2)c(C)c1` (single isomer, unassigned) [Example F-563], the pEC50 at human RORγ and at mouse RORγ was greater than 5.52 each time.

For the molecule `Cc1ccc(NC(=O)[C@H]2CNC[C@@H]2c2nnc(CCCC(C)(C)C)n2C2CC2)c(C)c1` (racemic) [Example F-449], the EC50 at human RORγ and on mouse RORγ was greater than 3 µM in each case.

With `CCc1cccc(NC(=O)CCc2nnc(CCC(C)C)n2C2CC2)c1C` [Example F-147], the concentration for a half-maximal effect (EC50) is greater than 3 µM at human RORγ and less than 3 µM at mouse RORγ.

Take `CC(C)(C)CCc1cc(-c2onc([C@@H](CCC(=O)O)CC(=O)Nc3ccc(F)cc3Cl)c2C2CC2)no1` [Example E-34]: the EC50 on human RORγ and at mouse RORγ was less than 3 µM throughout.

Consider `CCCCc1nnc(CCC(=O)Nc2cccc(Cl)c2C)n1C1CC1` [Example F-105], for which the EC50 on human RORγ and on mouse RORγ was greater than 3 µM throughout.

Take `Cc1ccc(NC(=O)C[C@H](CCCC(=O)O)c2noc(-c3cc(CCC(C)C)on3)c2C2CC2)c(Cl)c1` [Example E-21]: the EC50 at human RORγ and on mouse RORγ was less than 3 µM in each case.

Turning to `COc1cccc(NC(=O)CCc2nnc(CCC(C)C)n2C2CC2)c1C` [Example F-85], the EC50 on human RORγ and on mouse RORγ was greater than 3 µM in each case.

Consider `CC(C)(C)Cc1cc(-c2onc([C@@H](CCC(=O)O)CC(=O)Nc3ccc(F)cc3Cl)c2C2CC2)no1` [Example E-57], for which the EC50 at human RORγ and on mouse RORγ was less than 3 µM each time.

On to `CC(=O)N1CC[C@H](c2nnc(CCCC(C)(C)C)n2C2CC2)[C@@H](C(=O)Nc2ccc(C)cc2C)C1` (racemic) [Example F-435], for which the EC50 on human RORγ and on mouse RORγ was less than 3 µM in each case.

With `Cc1c(Cl)cccc1NC(=O)CCc1nnc(CC(C)C(C)C)n1C1CC1` (racemic) [Example F-117], the EC50 was greater than 3 µM at human RORγ and less than 3 µM on mouse RORγ.

Regarding `Cc1ccc(NC(=O)[C@H]2CN(C(=O)N3CCN(C)CC3)C[C@@H]2c2nnc([C@H]3C[C@@H](CC(C)(C)C)C3)n2C2CC2)c(C)c1` [Example F-651], the pEC50 on human RORγ and on mouse RORγ was greater than 5.52 in each case.

For the molecule `Cc1c(Cl)cccc1NC(=O)CCc1nnc(CCC2CCCNC2)n1C1CC1` (racemic) [Example F-189], the EC50 on human RORγ and at mouse RORγ was greater than 3 µM each time.

`Cc1cc(NC(=O)C[C@H](CC(=O)O)c2noc([C@H]3C[C@@H](CC(C)C)C3)c2C2CC2)no1` [Example F-670]: the pEC50 at human RORγ was less than 5.52; at mouse RORγ it was greater than 5.52.

As to `Cc1c(Cl)cccc1NC(=O)CC(CCO)c1nnc(CCCC(C)C)n1C1CC1` (racemic) [Example F-199], the EC50 on human RORγ and on mouse RORγ was less than 3 µM throughout.

`Cc1ccc(NC(=O)C[C@H](CC(C)C)c2nnc([C@H]3C[C@@H](CC(C)C)C3)n2C2CC2)c(C)c1` [Example F-590]: the pEC50 at human RORγ and on mouse RORγ was greater than 5.52 throughout.

Consider `Cc1ccc(NC(=O)C[C@H](CCC(=O)O)c2noc(-c3ncc(CC(C)C)o3)c2C2CC2)c(Cl)c1` [Example E-18], for which the EC50 at human RORγ and at mouse RORγ was less than 3 µM each time.

Consider `Cc1ccc(NC(=O)C[C@H](CCC(=O)O)c2noc(-c3cc(CC(C)C)on3)c2C(F)(F)F)c(F)c1` [Example E-12], for which the values for the EC50 on human RORγ and at mouse RORγ were greater than 3 µM and less than 3 µM, respectively.

Take `COc1cc(C)ccc1CNC(=O)CCc1nnc(CCCC(C)C)n1C1CC1` [Example F-217]: the EC50 on human RORγ and on mouse RORγ was less than 3 µM in each case.

With `Cc1c(NC(=O)C[C@H](CCO)c2nnc(-c3cc(CC(C)C)on3)n2C2CC2)ccc(F)c1F` [Example F-662], the pEC50 on human RORγ and on mouse RORγ was greater than 5.52 in each case.

Consider `Cc1ccc(NC(=O)CC(CC(=O)N(C)C)c2nnc(CCCC(C)C)n2C2CC2)c(C)c1` (racemic) [Example F-266], for which the EC50 at human RORγ and on mouse RORγ was less than 3 µM throughout.

As for `Cc1ccc(NC(=O)C(C)C(CCOCc2ccccc2)c2nnc([C@H]3C[C@@H](CC(C)C)C3)n2C2CC2)c(C)c1` (mixture of isomers) [Example F-488], the concentration giving a half-maximal response (EC50) on human RORγ was greater than 3 µM; at mouse RORγ it was less than 3 µM.

For the molecule `Cc1cc(F)ccc1NC(=O)[C@@H]1CC(F)(F)C[C@H]1c1nnc(-c2cc(CC(C)C)on2)n1C1CC1` [Example F-593], the pEC50 on human RORγ is less than 5.52; at mouse RORγ, greater than 5.52.

Take `Cc1ccc(NC(=O)CC(CCCN)c2nnc(CCCC(C)C)n2C2CC2)c(C)c1` (racemic) [Example F-282]: the half-maximal effective concentration (EC50) at human RORγ and at mouse RORγ was greater than 3 µM in each case.

As to `CCC(CC)C[C@H]1C[C@@H](c2nnc(CCC(=O)Nc3ccc(C)cc3C)n2C2CC2)C1` [Example F-496], the pEC50 at human RORγ and at mouse RORγ was greater than 5.52 each time.

Regarding `COc1cc(C)ccc1CNC(=O)CCc1noc(C(F)(F)c2cc(C(C)(C)C)no2)c1C1CC1` [Example F-741], the pEC50 at human RORγ and at mouse RORγ was greater than 5.52 in each case.

As to `CC(=O)N1C[C@H](C(=O)Nc2ccc(C)cc2C)[C@@H](c2nnc(CCCC(C)C)n2C2CC2)C1` [Example F-315], the EC50 on human RORγ and at mouse RORγ was less than 3 µM in each case.

Take `Cc1ccc(NC(=O)C[C@H](CCC(=O)O)c2nnn([C@H]3C[C@@H](CC(C)(C)C(C)C)C3)c2C2CC2)c(Cl)c1` [Example F-713]: the pEC50 on human RORγ and at mouse RORγ was greater than 5.52 each time.

Turning to `CC(=O)N1C[C@H](C(=O)Nc2ccc(C)cc2C)[C@@H](c2nnc(-c3cc(CC(C)C)no3)n2C2CC2)C1` [Example F-506], the pEC50 at human RORγ and on mouse RORγ was greater than 5.52 each time.

Take `Cc1ccc(NC(=O)CC(Cc2ccccn2)c2nnc([C@H]3C[C@@H](CC(C)C)C3)n2C2CC2)c(C)c1` (mixture of isomers) [Example F-422]: the concentration for a half-maximal effect (EC50) at human RORγ and at mouse RORγ was less than 3 µM throughout.

Take `Cc1c(NC(=O)CCc2nnc(CCC(C)C)n2C2CC2)cccc1C1CC1` [Example F-156]: the EC50 was greater than 3 µM on human RORγ and less than 3 µM at mouse RORγ.

The term pEC50 denotes the EC50 on a negative log10 scale, so that one unit is a factor of ten. As usually defined, the EC50 is the midpoint of the concentration-response curve.
